# Source: PMC3216401 (Antiviral research, 2011)
# Values joined by “and” are separate entries in the source; they are usually repeats but may differ in a detail not shown here. Equal values may be shown once. Read-outs that look alike come from different tables or passages of the source.
# Tests used:
# [1] = tested on: A/Hong Kong/213/2003H (A/Hong Kong/213/2003 × Ann Arbor/6/60 hybrid)
# [2] = tested on: B/Florida/4/2006; test: microbe, parasite or virus in culture; settings: Influenza B virus, MDCK, read-out: IC50, Visual Assay
# [3] = tested on: A/Gull/PA/4175/83 (H5N1)
# [4] = tested on: Influenza A/Vietnam/1203/2004 (H5N1); test: microbe, parasite or virus in culture; settings: H5N1, MDCK, read-out: IC50, Visual Assay
# [5] = tested on: A/Vietnam/1203/04H (A/Vietnam/1203/04 × Ann Arbor/6/60 hybrid)
# [6] = tested on: B/Malaysia/2506/2004
# [7] = tested on: Influenza A/Vietnam/1203/2004 (H5N1); test: microbe, parasite or virus in culture; format: cell-based; settings: H5N1, MDCK, read-out: IC90, VYR Assay
# [8] = tested on: B/Malaysia/2506/2004; test: microbe, parasite or virus in culture; settings: Influenza B virus, MDCK, read-out: IC50, Visual Assay
# [9] = tested on: A/Duck/MN/1525/81 (H5N1); test: microbe, parasite or virus in culture; settings: Influenza A virus, H5N1, MDCK, read-out: IC50, Visual Assay
# [10] = tested on: A/Gull/PA/4175/83 (H5N1); remark: listed apart in the source
# [11] = tested on: A/Vietnam/1203/04H (A/Vietnam/1203/04 × Ann Arbor/6/60 hybrid); test: microbe, parasite or virus in culture; settings: Influenza A virus, H1N1|H5N1, MDCK, read-out: IC50, Neutral Red Uptake Assay
# [12] = tested on: A/Hong Kong/213/2003H (A/Hong Kong/213/2003 × Ann Arbor/6/60 hybrid); remark: listed apart in the source
# [13] = tested on: Influenza A/Vietnam/1203/2004 (H5N1); test: microbe, parasite or virus in culture; settings: H5N1, MDCK, read-out: IC50, Neutral Red Uptake Assay
# [14] = in vitro; settings: dog, CC50 values, range, neutral red uptake assay
# [15] = mouse, in vivo
# [16] = tested on: Influenza A/Vietnam/1203/2004 (H5N1)
# [17] = tested on: B/Florida/4/2006
# [18] = tested on: Influenza A/Vietnam/1203/2004 (H5N1); remark: listed apart in the source
# [19] = tested on: A/Brisbane/10/2007 (H3N2)
# [20] = in vitro; settings: dog
# [21] = tested on: A/Duck/MN/1525/81 (H5N1); test: microbe, parasite or virus in culture; format: cell-based; settings: Influenza A virus, H5N1, MDCK, read-out: IC90, VYR Assay
# [22] = tested on: B/Malaysia/2506/2004; remark: listed apart in the source
# [23] = tested on: A/Hong Kong/213/2003 (H5N1)
# [24] = tested on: influenza virus; settings: in vivo; cited from earlier work
# [25] = tested on: A/Hong Kong/213/2003 (H5N1); test: microbe, parasite or virus in culture; settings: Influenza A virus, H5N1, MDCK, read-out: IC50, Visual Assay
# [26] = tested on: A/Thailand/2(Kan-1)/16/2004 (H5N1)
# [27] = tested on: A/Thailand/2(Kan-1)/16/2004 (H5N1); test: microbe, parasite or virus in culture; format: cell-based; settings: Influenza A virus, H5N1, MDCK, read-out: IC90, VYR Assay
# [28] = tested on: A/Thailand/2(Kan-1)/16/2004 (H5N1); remark: listed apart in the source
# [29] = tested on: A/Hong Kong/213/2003 (H5N1); test: microbe, parasite or virus in culture; settings: Influenza A virus, H5N1, MDCK, read-out: IC50, Neutral Red Uptake Assay
# [30] = tested on: A/Hong Kong/213/2003 (H5N1); remark: listed apart in the source
# [31] = tested on: influenza viruses; test: microbe, parasite or virus in culture; format: cell-based, influenza A and B viruses; settings: Influenza A virus, MDCK, read-out: IC50, all viruses tested
# [32] = tested on: A/Thailand/2(Kan-1)/16/2004 (H5N1); test: microbe, parasite or virus in culture; settings: Influenza A virus, H5N1, MDCK, read-out: IC50, Neutral Red Uptake Assay
# [33] = tested on: influenza A/CA/04/09 pandemic H1N1 virus; set-up: species or system BALB/c mice; settings: mouse, in vivo
# [34] = tested on: A/Thailand/2(Kan-1)/16/2004 (H5N1); test: microbe, parasite or virus in culture; settings: Influenza A virus, H5N1, MDCK, read-out: IC50, Visual Assay
# [35] = tested on: A/Hong Kong/213/2003 (H5N1); test: microbe, parasite or virus in culture; format: cell-based; settings: Influenza A virus, H5N1, MDCK, read-out: IC90, VYR Assay
smiles,measurement,setting,value
"Nc1ccn([C@@H]2O[C@H](CO)[C@@H](O)C2(F)F)c(=O)n1 [2’-deoxy-2’, 2’-difluorocytidine, reference compound]","SI (CC50/IC50), Visual Assay",[1],>3100
same,IC50,[2],< 0.32 µM
same,"SI (CC50/IC50), Neutral Red Uptake Assay",[3],370
same,IC50,[4],< 0.032 µM
same,"SI (CC50/IC50), Neutral Red Uptake Assay",[5],>500
same,"SI (CC50/IC50), Visual Assay",[6],>3100
same,IC90,[7],0.03 µM
same,IC50,[8],< 0.032 µM
same,IC50,[9],< 0.32 µM
same,"SI (CC50/IC50), Visual Assay",[10],>480
same,IC50,[11],< 0.32 µM
same,"SI (CC50/IC50), Neutral Red Uptake Assay",[12],>1538
same,IC50,[13],< 0.032 µM
same,CC50,[14],1.1 to 280 µM
same,Tolerability in uninfected mice,[15],well tolerated
same,"SI (CC50/IC50), Neutral Red Uptake Assay",[16],>3100
same,"SI (CC50/IC50), Neutral Red Uptake Assay",[17],>440
same,"SI (CC50/IC50), Visual Assay",[18],>3100
same,"SI (CC50/IC50), Neutral Red Uptake Assay",[19],8.1
same,CC50,"[20]; CC50 values, range, visual assay",2.1 to 530 µM
same,IC90,[21],0.25 µM
same,"SI (CC50/IC50), Neutral Red Uptake Assay",[22],>1500
"Nc1ccn([C@@H]2O[C@H](CO)[C@@H](O)[C@H]2F)c(=O)n1 [2’-deoxy-2’-fluorocytidine, 2'-deoxy-2'-fluorocytidine]","SI (CC50/IC50), Visual Assay",[23],>1954 ± 553
same,Effect on virus lung titers in the mouse model,[24],did not reduce virus lung titers
same,IC50,[2],1 µM
same,"SI (CC50/IC50), Neutral Red Uptake Assay",[3],>91
same,IC50,[25],0.05 ± 0.01 µM
same,"SI (CC50/IC50), Neutral Red Uptake Assay",[5],>29
same,"SI (CC50/IC50), Visual Assay",[6],>53
same,"SI (CC50/IC50), Neutral Red Uptake Assay",[26],>251 ± 249
same,IC50,[8],1.9 µM
same,IC50,[9],0.25 µM
same,IC90,[27],0.69 µM
same,"SI (CC50/IC50), Visual Assay",[28],>676 ± 204
same,"SI (CC50/IC50), Visual Assay",[10],>110
same,IC50,[11],3.4 µM
same,"SI (CC50/IC50), Neutral Red Uptake Assay",[12],>14
same,IC50,[29],0.27 ± 0.14 µM
same,"SI (CC50/IC50), Neutral Red Uptake Assay",[30],>447 ± 216
same,IC50,[31],< 15 µM
same,"SI (CC50/IC50), Neutral Red Uptake Assay",[17],>71
same,"SI (CC50/IC50), Neutral Red Uptake Assay",[19],>7.1
same,IC50,[32],0.72 ± 0.51 µM
same,Live/Total,[33],5/10 and 4/10 and 0/10
same,Mean Day of Death ± SD,[33],7.8 ± 1.3 days and 8.9 ± 1.2 days and 9.3 ± 2.1 days
same,CC50,"[20]; CC50, Visual Assay",> 100 µM
same,IC50,[34],0.16 ± 0.04 µM
same,IC90,[21],5.9 µM
same,"SI (CC50/IC50), Neutral Red Uptake Assay",[22],>24
same,IC90,[35],1.54 µM
